In ChEMBL document CHEMBL1151840, “Synthetic oligoribonucleotides containing arabinonucleotides act as agonists of TLR7 and 8” (Bioorg Med Chem Lett, 2009):
Calls of active or inactive are those of the source. No cut-off for these calls is given here.

What was measured:
[1] = species: Homo sapiens; assay: Stimulation of immune response in human pDC assessed as induction of IFNalpha production at 150 ug/ml after 24 hrs; type: functional
[2] = species: Homo sapiens; assay: Stimulation of immune response in human pDC assessed as induction of MIP1beta production at 150 ug/ml after 24 hrs; type: functional
[3] = test system: PBMC; assay: Stimulation of immune response in human PBMC assessed as induction of MIP1beta production at 150 ug/ml after 24 hrs; type: functional, cell-based
[4] = test system: PBMC; assay: Stimulation of immune response in human PBMC assessed as induction of RANTES production at 150 ug/ml after 24 hrs; type: functional, cell-based
[5] = test system: PBMC; assay: Stimulation of immune response in human PBMC assessed as induction of IL2R level at 150 ug/ml after 24 hrs; type: functional, cell-based
[6] = Stability in human serum assessed as full-length compound remaining after 10 mins by anion-exchange HPLC; type: ADME, cell-free; conditions: read-out: Stability
[7] = species: Homo sapiens; assay: Stimulation of immune response in human pDC assessed as induction of IFN-gamma production at 150 ug/ml after 24 hrs; type: functional
[8] = biological target: T1, Toll-like receptor 7 (Homo sapiens) (UniProt Q9NYK1); assay: Agonist activity at human TLR7 expressed in HEK293XL cells assessed as NF-kappaB activation at 300 ug/ml after 18 hrs; type: functional, cell-based
T1 sequence (whole entry): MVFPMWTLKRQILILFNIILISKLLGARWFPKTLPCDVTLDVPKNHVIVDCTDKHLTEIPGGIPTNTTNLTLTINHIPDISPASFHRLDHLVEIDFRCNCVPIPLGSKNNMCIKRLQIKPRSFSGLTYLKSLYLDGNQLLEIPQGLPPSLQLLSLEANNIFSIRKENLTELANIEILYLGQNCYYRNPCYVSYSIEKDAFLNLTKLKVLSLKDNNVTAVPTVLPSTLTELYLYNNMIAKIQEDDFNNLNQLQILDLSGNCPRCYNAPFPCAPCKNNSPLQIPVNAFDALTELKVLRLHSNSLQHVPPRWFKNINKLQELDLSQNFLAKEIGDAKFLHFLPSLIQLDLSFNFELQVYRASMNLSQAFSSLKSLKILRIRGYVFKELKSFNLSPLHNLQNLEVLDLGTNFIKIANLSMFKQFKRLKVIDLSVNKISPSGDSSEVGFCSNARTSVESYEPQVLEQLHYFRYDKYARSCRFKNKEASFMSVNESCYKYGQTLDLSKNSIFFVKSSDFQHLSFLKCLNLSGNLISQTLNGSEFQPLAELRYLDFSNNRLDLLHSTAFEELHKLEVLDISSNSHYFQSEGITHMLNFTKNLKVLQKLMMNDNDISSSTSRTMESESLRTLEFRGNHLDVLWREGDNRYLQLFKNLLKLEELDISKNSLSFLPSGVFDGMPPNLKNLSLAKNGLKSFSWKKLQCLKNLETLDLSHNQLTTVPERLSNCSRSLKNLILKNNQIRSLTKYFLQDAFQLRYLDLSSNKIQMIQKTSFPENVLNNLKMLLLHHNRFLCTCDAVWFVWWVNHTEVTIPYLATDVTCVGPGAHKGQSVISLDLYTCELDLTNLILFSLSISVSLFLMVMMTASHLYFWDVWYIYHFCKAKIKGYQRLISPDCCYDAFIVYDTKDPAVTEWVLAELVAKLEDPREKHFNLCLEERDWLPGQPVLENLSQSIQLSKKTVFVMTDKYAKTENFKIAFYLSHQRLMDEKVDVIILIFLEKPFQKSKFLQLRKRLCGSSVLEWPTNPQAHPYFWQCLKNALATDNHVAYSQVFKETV

[9] = test system: PBMC; assay: Stimulation of immune response in human PBMC assessed as induction of MIP1alpha production at 150 ug/ml after 24 hrs; type: functional, cell-based
[10] = test system: PBMC; assay: Stimulation of immune response in human PBMC assessed as induction of IL1-beta production at 150 ug/ml after 24 hrs; type: functional, cell-based
[11] = species: Homo sapiens; assay: Stimulation of immune response in human pDC assessed as induction of MIP1alpha production at 150 ug/ml after 24 hrs; type: functional
[12] = test system: PBMC; assay: Stimulation of immune response in human PBMC assessed as induction of IL12 production at 150 ug/ml after 24 hrs; type: functional, cell-based
[13] = test system: PBMC; assay: Stimulation of immune response in human PBMC assessed as induction of IFNalpha production at 150 ug/ml after 24 hrs; type: functional, cell-based
[14] = test system: PBMC; assay: Stimulation of immune response in human PBMC assessed as induction of IFN-gamma production at 150 ug/ml after 24 hrs; type: functional, cell-based
[15] = test system: PBMC; assay: Stimulation of immune response in human PBMC assessed as induction of MCP1 production at 150 ug/ml after 24 hrs; type: functional, cell-based
[16] = biological target: T2, Toll-like receptor 8 (Homo sapiens) (UniProt Q9NR97); assay: Agonist activity at human TLR8 expressed in HEK293XL cells assessed as NF-kappaB activation after 18 hrs; type: functional, cell-based
T2 sequence (whole entry): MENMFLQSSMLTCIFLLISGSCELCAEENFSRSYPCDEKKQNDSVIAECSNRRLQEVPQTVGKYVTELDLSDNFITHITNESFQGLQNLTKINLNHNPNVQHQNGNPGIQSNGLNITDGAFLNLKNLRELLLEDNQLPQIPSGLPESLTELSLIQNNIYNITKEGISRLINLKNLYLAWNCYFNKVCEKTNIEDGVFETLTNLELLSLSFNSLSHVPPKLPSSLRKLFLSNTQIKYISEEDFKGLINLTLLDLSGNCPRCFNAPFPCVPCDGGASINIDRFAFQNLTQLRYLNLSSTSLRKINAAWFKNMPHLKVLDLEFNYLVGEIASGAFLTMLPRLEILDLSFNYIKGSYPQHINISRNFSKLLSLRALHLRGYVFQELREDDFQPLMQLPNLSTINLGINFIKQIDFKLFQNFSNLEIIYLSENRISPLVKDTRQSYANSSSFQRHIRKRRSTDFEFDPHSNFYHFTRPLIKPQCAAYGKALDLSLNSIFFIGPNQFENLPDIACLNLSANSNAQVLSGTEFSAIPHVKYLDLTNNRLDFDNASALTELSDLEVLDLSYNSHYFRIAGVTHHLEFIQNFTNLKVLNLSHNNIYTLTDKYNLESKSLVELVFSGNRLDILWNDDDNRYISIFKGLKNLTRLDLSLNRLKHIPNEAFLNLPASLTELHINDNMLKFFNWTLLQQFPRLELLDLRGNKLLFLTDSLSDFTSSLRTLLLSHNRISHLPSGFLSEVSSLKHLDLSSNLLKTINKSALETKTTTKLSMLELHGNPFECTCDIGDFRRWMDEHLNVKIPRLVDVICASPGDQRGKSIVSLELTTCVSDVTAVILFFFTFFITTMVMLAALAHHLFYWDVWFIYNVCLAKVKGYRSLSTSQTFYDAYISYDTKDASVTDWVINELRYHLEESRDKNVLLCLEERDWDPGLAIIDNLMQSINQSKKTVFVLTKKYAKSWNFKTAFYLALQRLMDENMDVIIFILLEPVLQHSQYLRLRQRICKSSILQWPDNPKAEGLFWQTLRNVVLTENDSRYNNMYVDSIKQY

[17] = species: Homo sapiens; assay: Stimulation of immune response in human pDC assessed as induction of TNFalpha production at 150 ug/ml after 24 hrs; type: functional
[18] = species: Homo sapiens; assay: Stimulation of immune response in human pDC assessed as induction of IL12 production at 150 ug/ml after 24 hrs; type: functional
[19] = test system: PBMC; assay: Stimulation of immune response in human PBMC assessed as induction of IL8 production at 150 ug/ml after 24 hrs; type: functional, cell-based
[20] = test system: PBMC; assay: Stimulation of immune response in human PBMC assessed as induction of IL10 production at 150 ug/ml after 24 hrs; type: functional, cell-based
[21] = test system: Mus musculus; assay: Stimulation of immune response in C57BL/6 mouse assessed as induction of serum IL12 production at 50 mg/kg, sc after 2 hrs by luminex multiplex assay; type: functional, organism-based; design: dose 50 mg/kg
[22] = test system: PBMC; assay: Stimulation of immune response in human PBMC assessed as induction of TNFalpha production at 150 ug/ml after 24 hrs; type: functional, cell-based

SMILES: Nc1ccn([C@@H]2O[C@H](COP(=O)(S)O[C@H]3[C@@H](O)[C@H](n4ccc(=O)[nH]c4=O)O[C@@H]3COP(=O)(S)O[C@H]3[C@@H](O)[C@H](n4ccc(=O)[nH]c4=O)O[C@@H]3COP(=O)(S)O[C@H]3[C@H](O)[C@H](n4cnc5c(=O)[nH]c(N)nc54)O[C@@H]3COP(=O)(S)O[C@H]3[C@@H](O)[C@H](n4ccc(=O)[nH]c4=O)O[C@@H]3COP(=O)(S)O[C@H]3[C@H](O)[C@H](n4cnc5c(=O)[nH]c(N)nc54)O[C@@H]3COP(=O)(S)OCC(O)COP(=O)(S)O[C@H]3[C@H](O)[C@H](n4cnc5c(=O)[nH]c(N)nc54)O[C@@H]3COP(=O)(S)O[C@H]3[C@@H](O)[C@H](n4ccc(=O)[nH]c4=O)O[C@@H]3COP(=O)(S)O[C@H]3[C@H](O)[C@H](n4cnc5c(=O)[nH]c(N)nc54)O[C@@H]3COP(=O)(S)O[C@H]3[C@@H](O)[C@H](n4ccc(=O)[nH]c4=O)O[C@@H]3COP(=O)(S)O[C@H]3[C@@H](O)[C@H](n4ccc(=O)[nH]c4=O)O[C@@H]3COP(=O)(S)O[C@H]3[C@@H](O)[C@H](n4ccc(N)nc4=O)O[C@@H]3COP(=O)(S)O[C@H]3[C@H](O)[C@H](n4cnc5c(=O)[nH]c(N)nc54)O[C@@H]3COP(=O)(S)O[C@H]3[C@@H](O)[C@H](n4ccc(=O)[nH]c4=O)O[C@@H]3COP(=O)(S)O[C@H]3[C@@H](O)[C@H](n4ccc(N)nc4=O)O[C@@H]3COP(=O)(S)O[C@H]3[C@H](O)[C@H](n4cnc5c(=O)[nH]c(N)nc54)O[C@@H]3COP(=O)(S)O[C@H]3[C@@H](O)[C@H](n4ccc(=O)[nH]c4=O)O[C@@H]3CO)[C@@H](OP(=O)(S)OC[C@H]3O[C@@H](n4cnc5c(=O)[nH]c(N)nc54)[C@@H](O)[C@@H]3OP(=O)(S)OC[C@H]3O[C@@H](n4ccc(=O)[nH]c4=O)[C@H](O)[C@@H]3OP(=O)(S)OC[C@H]3O[C@@H](n4ccc(N)nc4=O)[C@H](O)[C@@H]3OP(=O)(S)OC[C@H]3O[C@@H](n4cnc5c(=O)[nH]c(N)nc54)[C@@H](O)[C@@H]3OP(=O)(S)OC[C@H]3O[C@@H](n4ccc(=O)[nH]c4=O)[C@H](O)[C@@H]3OP(=O)(O)S)[C@H]2O)c(=O)n1 (some centres not stated)
- Activity [1]: inactive
- Activity [2]: Active
- Activity [3]: Active
- Activity [4]: Active
- Activity [5]: Active
- remaining at 10 min [6]: 76%
- Activity [7]: Active
- Activity [8]: inactive
- Activity [9]: Active
- Activity [10]: Active
- Activity [11]: Active
- Activity [12]: Active
- Activity [13]: Active
- Activity [14]: Active
- Activity [15]: Active
- Activity [16]: Dose-dependent effect
- Activity [17]: Active
- Activity [18]: Active
- Activity [19]: Active
- Activity [20]: Active
- Activity [21]: inactive
- Activity [22]: Active
